We go through 27 compounds from patent publication US12565490B2, “Inhibitors of Receptor Interacting Protein Kinase I for the treatment of disease” (Board of Regents, The University of Texas System, priority 2020, dated 2026).

SMILES strings stand for the structures.

This test deals with human monocytic cell line U937. The test can be described thus: Human U937 cellular necroptosis assay. Conditions: U-937; U937 cells stimulated with 25 ng/mL human TNFalpha and 25 μM z-VAD-FMK; 22 hr; viability by Cell Titer-Glo 2.0; read-out: hU937 IC50. Type of test: cell-based. Summed up:
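U937 cells (5000/well) driven to necroptosis by 25 ng/mL human TNFalpha plus 25 μM z-VAD-FMK alongside 1:3-diluted compounds, 22 hr at 37° C, 5% CO2. Viability by CellTiter-Glo luminescence; IC50 from four-parameter logistic fit.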
`CN1C(=O)[C@@H](NC(=O)c2ncc(Cl)c(-c3ccc(Cl)cc3)n2)COc2cc(F)cnc21` [Example 82, (S)-5-chloro-4-(4-chlorophenyl)-N-(8-fluoro-5-methyl-4-oxo-2,3,4,5-tetrahydropyrido[3,2-b]-[1,4]oxazepin-3-yl)pyrimidine-2-carboxamide]: the half-inhibitory concentration (IC50) (usually the midpoint of a concentration-inhibition curve) worked out at 13.6 nM.

Regarding `Cc1cccc(-c2nc(C(=O)N[C@H]3COc4cc(F)cnc4N(C)C3=O)ncc2Cl)c1` [Example 83, (S)-5-chloro-N-(8-fluoro-5-methyl-4-oxo-2,3,4,5-tetrahydropyrido[3,2-b]-[1,4]oxazepin-3-yl)-4-(m-tolyl)-pyrimidine-2-carboxamide], the IC50 stood at 15.1 nM.

Take `CN1C(=O)[C@@H](NC(=O)c2ncc(Cl)c(-c3cccc(C#N)c3)n2)COc2cc(F)cnc21` [Example 84, (S)-5-chloro-4-(3-cyanophenyl)-N-(8-fluoro-5-methyl-4-oxo-2,3,4,5-tetrahydropyrido[3,2-b]-[1,4]oxazepin-3-yl)pyrimidine-2-carboxamide]: the IC50 worked out at 33.5 nM.

As to `CN1C(=O)[C@@H](NC(=O)c2ncc(Cl)c(-c3ncccc3F)n2)COc2cc(F)cnc21` [Example 85, (S)-5-chloro-N-(8-fluoro-5-methyl-4-oxo-2,3,4,5-tetrahydropyrido[3,2-b]-[1,4]oxazepin-3-yl)-4-(3-fluoropyridin-2-yl)pyrimidine-2-carboxamide], the IC50 was 611 nM.

As for `Cc1cnc(C(=O)N[C@H]2COc3cc(F)cnc3N(C)C2=O)nc1C12CCC(CC1)CC2` [Example 86, (S)-4-(bicyclo[2.2.2]octan-1-yl)-N-(8-fluoro-5-methyl-4-oxo-2,3,4,5-tetrahydro-pyrido[3,2-b][1,4]oxazepin-3-yl)-5-methylpyrimidine-2-carboxamide], the concentration for half-maximal inhibition (IC50) amounted to 67.5 nM.

As for `Cc1cnc(C(=O)N[C@H]2COc3cc(F)cnc3N(C)C2=O)nc1C1CCOCC1` [Example 87, (S)-N-(8-fluoro-5-methyl-4-oxo-2,3,4,5-tetrahydro-pyrido[3,2-b][1,4]oxazepin-3-yl)-5-methyl-4-(tetrahydro-2H-pyran-4-yl)pyrimidine-2-carboxamide], the IC50 came out at 157 nM.

For `Cc1cnc(C(=O)N[C@H]2COc3cc(F)cnc3N(C)C2=O)nc1-c1ccccc1F` [Example 88, (S)-N-(8-fluoro-5-methyl-4-oxo-2,3,4,5-tetrahydro-pyrido[3,2-b][1,4]oxazepin-3-yl)-4-(2-fluorophenyl)-5-methylpyrimidine-2-carboxamide], the IC50 was 13.7 nM.

Consider `Cc1cc(F)ccc1-c1ccnc(C(=O)N[C@H]2COc3cc(Cl)cnc3N(C)C2=O)n1` [Example 89, (S)-N-(8-chloro-5-methyl-4-oxo-2,3,4,5-tetrahydro-pyrido[3,2-b][1,4]oxazepin-3-yl)-4-(4-fluoro-2-methylphenyl)pyrimidine-2-carboxamide], for which the IC50 was 136 nM.

Consider `Cc1cc(F)cc(F)c1-c1ccnc(C(=O)N[C@H]2COc3cc(Cl)cnc3N(C)C2=O)n1` [Example 90, (S)-N-(8-chloro-5-methyl-4-oxo-2,3,4,5-tetrahydro-pyrido[3,2-b][1,4]oxazepin-3-yl)-4-(2,4-difluoro-6-methylphenyl)pyrimidine-2-carboxamide], for which the IC50 was found to be 83.5 nM.

As for `CN1C(=O)[C@@H](NC(=O)c2ncc(F)c(-c3ccc(F)cc3)n2)COc2cc(Cl)cnc21` [Example 91, (S)-N-(8-chloro-5-methyl-4-oxo-2,3,4,5-tetrahydro-pyrido[3,2-b][1,4]oxazepin-3-yl)-5-fluoro-4-(4-fluorophenyl)-pyrimidine-2-carboxamide], the IC50 is 33.2 nM.

Turning to `Cc1cc(F)ccc1-c1nc(C(=O)N[C@H]2COc3cc(Cl)cnc3N(C)C2=O)ncc1F` [Example 92, (S)-N-(8-chloro-5-methyl-4-oxo-2,3,4,5-tetrahydro-pyrido[3,2-b][1,4]oxazepin-3-yl)-5-fluoro-4-(4-fluoro-2-methylphenyl)pyrimidine-2-carboxamide], the IC50 is 15.2 nM.

As for `CN1C(=O)[C@@H](NC(=O)c2ncc(Cl)c(-c3ccccc3)n2)COc2cc(Cl)cnc21` [Example 93, (S)-5-chloro-N-(8-chloro-5-methyl-4-oxo-2,3,4,5-tetrahydropyrido[3,2-b]-[1,4]oxazepin-3-yl)-4-phenylpyrimidine-2-carboxamide], the IC50 worked out at 6.23 nM.

On to `CN1C(=O)[C@@H](NC(=O)c2ncc(Cl)c(-c3ccccc3F)n2)COc2cc(Cl)cnc21` [Example 94, (S)-5-chloro-N-(8-chloro-5-methyl-4-oxo-2,3,4,5-tetrahydropyrido[3,2-b]-[1,4]oxazepin-3-yl)-4-(2-fluorophenyl)pyrimidine-2-carboxamide], for which the IC50 came to 13.5 nM.

Consider `CN1C(=O)[C@@H](NC(=O)c2ncc(Cl)c(-c3cccc(F)c3F)n2)COc2cc(Cl)cnc21` [Example 95, (S)-5-chloro-N-(8-chloro-5-methyl-4-oxo-2,3,4,5-tetrahydropyrido[3,2-b]-[1,4]oxazepin-3-yl)-4-(2,3-difluorophenyl)pyrimidine-2-carboxamide], for which the half-maximal inhibitory concentration (IC50) amounted to 15.2 nM.

In the case of `CN1C(=O)[C@@H](NC(=O)c2ncc(Cl)c(-c3ccc(F)cc3F)n2)COc2cc(Cl)cnc21` [Example 96, (S)-5-chloro-N-(8-chloro-5-methyl-4-oxo-2,3,4,5-tetrahydropyrido[3,2-b]-[1,4]oxazepin-3-yl)-4-(2,4-difluorophenyl)pyrimidine-2-carboxamide], the IC50 came out at 8.33 nM.

On to `CN1C(=O)[C@@H](NC(=O)c2ncc(Cl)c(-c3ccc(F)c(F)c3)n2)COc2cc(Cl)cnc21` [Example 97, (S)-5-chloro-N-(8-chloro-5-methyl-4-oxo-2,3,4,5-tetrahydropyrido[3,2-b]-[1,4]oxazepin-3-yl)-4-(3,4-difluorophenyl)pyrimidine-2-carboxamide], for which the 50% inhibitory concentration (IC50) was 11 nM.

Take `CN1C(=O)[C@@H](NC(=O)c2ncc(Cl)c(-c3cc(F)ccc3F)n2)COc2cc(Cl)cnc21` [Example 98, (S)-5-chloro-N-(8-chloro-5-methyl-4-oxo-2,3,4,5-tetrahydropyrido[3,2-b]-[1,4]oxazepin-3-yl)-4-(2,5-difluorophenyl)pyrimidine-2-carboxamide]: the concentration for half-maximal inhibition (IC50) is 7.25 nM.

For the compound `CN1C(=O)[C@@H](NC(=O)c2ncc(Cl)c(-c3cc(F)cc(F)c3)n2)COc2cc(Cl)cnc21` [Example 99, (S)-5-chloro-N-(8-chloro-5-methyl-4-oxo-2,3,4,5-tetrahydropyrido [3,2-b]-[1,4]oxazepin-3-yl)-4-(3,5-difluorophenyl)pyrimidine-2-carboxamide], the IC50 was determined as 13.9 nM.

Turning to `Cc1cc(-c2nc(C(=O)N[C@H]3COc4cc(Cl)cnc4N(C)C3=O)ncc2Cl)ccc1F` [Example 100, (S)-5-chloro-N-(8-chloro-5-methyl-4-oxo-2,3,4,5-tetrahydropyrido[3,2-b]-[1,4]oxazepin-3-yl)-4-(4-fluoro-3-methylphenyl)pyrimidine-2-carboxamide], the half-maximal inhibitory concentration (IC50) came out at 12.2 nM.

Take `CN1C(=O)[C@@H](NC(=O)c2ncc(Cl)c(-c3ccccc3Cl)n2)COc2cc(Cl)cnc21` [Example 101, (S)-5-chloro-N-(8-chloro-5-methyl-4-oxo-2,3,4,5-tetrahydropyrido[3,2-b]-[1,4]oxazepin-3-yl)-4-(2-chlorophenyl)pyrimidine-2-carboxamide]: the IC50 turned out to be 14.7 nM.

For `CN1C(=O)[C@@H](NC(=O)c2ncc(Cl)c(-c3cccc(Cl)c3)n2)COc2cc(Cl)cnc21` [Example 102, (S)-5-chloro-N-(8-chloro-5-methyl-4-oxo-2,3,4,5-tetrahydropyrido[3,2-b]-[1,4]oxazepin-3-yl)-4-(3-chlorophenyl)pyrimidine-2-carboxamide], the 50% inhibitory concentration (IC50) was found to be 12.7 nM.

For `CN1C(=O)[C@@H](NC(=O)c2ncc(Cl)c(-c3ccc(Cl)cc3)n2)COc2cc(Cl)cnc21` [Example 103, (S)-5-chloro-N-(8-chloro-5-methyl-4-oxo-2,3,4,5-tetrahydropyrido[3,2-b]-[1,4]oxazepin-3-yl)-4-(4-chlorophenyl)pyrimidine-2-carboxamide], the concentration for half-maximal inhibition (IC50) was determined as 6.69 nM.

Take `CN1C(=O)[C@@H](NC(=O)c2ncc(Cl)c(-c3cccc(C#N)c3)n2)COc2cc(Cl)cnc21` [Example 104, (S)-5-chloro-N-(8-chloro-5-methyl-4-oxo-2,3,4,5-tetrahydropyrido[3,2-b]-[1,4]oxazepin-3-yl)-4-(3-cyanophenyl)pyrimidine-2-carboxamide]: the IC50 turned out to be 32.1 nM.

As to `CN1C(=O)[C@@H](NC(=O)c2ncc(Cl)c(-c3ccc(C#N)cc3)n2)COc2cc(Cl)cnc21` [Example 105, (S)-5-chloro-N-(8-chloro-5-methyl-4-oxo-2,3,4,5-tetrahydropyrido[3,2-b]-[1,4]oxazepin-3-yl)-4-(4-cyanophenyl)pyrimidine-2-carboxamide], the 50% inhibitory concentration (IC50) is 19.6 nM.

For `Cc1cccc(-c2nc(C(=O)N[C@H]3COc4cc(Cl)cnc4N(C)C3=O)ncc2Cl)c1` [Example 106, (S)-5-chloro-N-(8-chloro-5-methyl-4-oxo-2,3,4,5-tetrahydropyrido[3,2-b]-[1,4]oxazepin-3-yl)-4-(m-tolyl)-pyrimidine-2-carboxamide], the IC50 amounted to 14.8 nM.

On to `Cc1ccn(-c2nc(C(=O)N[C@H]3COc4cc(Cl)cnc4N(C)C3=O)ncc2Cl)n1` [Example 107, (S)-5-chloro-N-(8-chloro-5-methyl-4-oxo-2,3,4,5-tetrahydropyrido [3,2-b]-[1,4]oxazepin-3-yl)-4-(3-methyl-1H-pyrazol-1-yl)-pyrimidine-2-carboxamide], for which the IC50 was determined as 606 nM.

As to `CN1C(=O)[C@@H](NC(=O)c2ncc(Cl)c(-c3ncccc3F)n2)COc2cc(Cl)cnc21` [Example 108, (S)-5-chloro-N-(8-chloro-5-methyl-4-oxo-2,3,4,5-tetrahydropyrido[3,2-b]-[1,4]oxazepin-3-yl)-4-(3-fluoropyridin-2-yl)pyrimidine-2-carboxamide], the IC50 turned out to be 121 nM.
